{
  "source": "ChEMBL document CHEMBL1201862",
  "about": "“PubChem BioAssay data set” (2004)",
  "key": {"[1]": {"experiment": "Counterscreen for […] of the human trace amine associated receptor 1 (TAAR1): Fluorescence-based cell-based high throughput dose response assay to identify nonselective Ga16 agonists.", "format": "functional"}, "[2]": {"experiment": "Counterscreen for antagonists of the human trace amine associated receptor 1 (hTAAR1): Fluorescence-based cell-based high throughput dose response assay to identify nonselective Ga16 antagonists.", "format": "functional"}, "[3]": {"experiment": "viability loss in HEK293T cells – cell-based, cherry-picks, cytotoxicity control for HIV Vif inhibitor project, dose response (AID 652208)", "format": "functional"}, "Vero": {"tested_on": "Vero", "experiment": "viability loss in Vero cells – cell-based, plate reader, cherry-pick samples, cytotoxicity control, dose response (AID 687020)", "format": "functional", "conditions": "Chlorocebus sabaeus"}, "[4]": {"experiment": "general mammalian cell viability loss – inhibitor set, cherry-pick, set 2, cytotoxicity control for miR-122 modulator project, dose response (AID 720697)", "format": "functional, cell-based"}, "cells [5]": {"experiment": "cells"}, "[6]": {"target": "T1, Oxysterols receptor LXR-beta (Homo sapiens, UniProt P55055)", "T1 sequence (P55055 whole entry)": "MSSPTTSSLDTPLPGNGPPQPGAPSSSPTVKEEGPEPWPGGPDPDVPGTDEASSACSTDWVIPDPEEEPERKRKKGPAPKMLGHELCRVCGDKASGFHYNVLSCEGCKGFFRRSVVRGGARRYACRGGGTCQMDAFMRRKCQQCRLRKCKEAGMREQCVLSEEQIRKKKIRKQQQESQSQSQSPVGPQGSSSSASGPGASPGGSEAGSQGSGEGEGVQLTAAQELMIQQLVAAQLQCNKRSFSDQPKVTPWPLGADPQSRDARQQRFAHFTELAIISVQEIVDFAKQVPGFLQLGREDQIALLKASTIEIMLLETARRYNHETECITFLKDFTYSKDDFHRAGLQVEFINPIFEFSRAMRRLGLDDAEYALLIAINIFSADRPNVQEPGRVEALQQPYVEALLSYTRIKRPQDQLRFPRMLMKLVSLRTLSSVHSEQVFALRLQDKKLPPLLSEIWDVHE", "format": "functional, cell-based"}, "[7]": {"target": "Photoreceptor-specific nuclear receptor (Homo sapiens, UniProt Q9Y5X4)", "sequence (Q9Y5X4 whole entry)": "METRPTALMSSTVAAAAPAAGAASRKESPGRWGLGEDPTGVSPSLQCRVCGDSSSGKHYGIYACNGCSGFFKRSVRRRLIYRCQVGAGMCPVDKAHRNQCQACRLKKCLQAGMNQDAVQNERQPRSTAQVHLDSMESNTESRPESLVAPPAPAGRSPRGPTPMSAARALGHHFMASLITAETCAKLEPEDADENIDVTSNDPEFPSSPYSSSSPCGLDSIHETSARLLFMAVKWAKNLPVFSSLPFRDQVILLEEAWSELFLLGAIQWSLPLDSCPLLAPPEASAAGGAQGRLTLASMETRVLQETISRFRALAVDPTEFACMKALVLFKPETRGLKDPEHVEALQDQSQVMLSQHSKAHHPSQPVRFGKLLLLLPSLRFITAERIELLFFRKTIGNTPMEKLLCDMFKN", "format": "functional, cell-based"}, "[8]": {"target": "Nuclear receptor subfamily 0 group B member 1 (Homo sapiens, UniProt P51843)", "sequence (P51843 whole entry)": "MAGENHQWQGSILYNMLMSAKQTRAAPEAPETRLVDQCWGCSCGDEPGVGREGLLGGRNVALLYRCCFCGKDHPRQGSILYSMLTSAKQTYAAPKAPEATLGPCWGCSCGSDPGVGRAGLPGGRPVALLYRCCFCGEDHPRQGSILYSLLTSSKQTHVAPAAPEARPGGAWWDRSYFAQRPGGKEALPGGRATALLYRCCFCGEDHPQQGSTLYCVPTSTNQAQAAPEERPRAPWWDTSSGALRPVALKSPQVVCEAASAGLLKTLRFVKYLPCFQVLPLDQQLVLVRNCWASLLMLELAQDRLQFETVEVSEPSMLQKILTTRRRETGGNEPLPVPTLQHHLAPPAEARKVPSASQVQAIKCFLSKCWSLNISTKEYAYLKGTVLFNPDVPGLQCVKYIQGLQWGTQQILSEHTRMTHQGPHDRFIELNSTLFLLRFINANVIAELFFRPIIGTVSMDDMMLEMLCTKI", "format": "functional, cell-based"}, "cells [9]": {"experiment": "cells", "format": "functional, cell-based"}, "Cryptococcus neoformans": {"tested_on": "Cryptococcus neoformans", "experiment": "PubChem AID 686997", "format": "functional, organism-based"}, "Mu-type opioid receptor": {"target": "Mu-type opioid receptor (Homo sapiens, UniProt P35372)", "sequence (P35372 whole entry)": "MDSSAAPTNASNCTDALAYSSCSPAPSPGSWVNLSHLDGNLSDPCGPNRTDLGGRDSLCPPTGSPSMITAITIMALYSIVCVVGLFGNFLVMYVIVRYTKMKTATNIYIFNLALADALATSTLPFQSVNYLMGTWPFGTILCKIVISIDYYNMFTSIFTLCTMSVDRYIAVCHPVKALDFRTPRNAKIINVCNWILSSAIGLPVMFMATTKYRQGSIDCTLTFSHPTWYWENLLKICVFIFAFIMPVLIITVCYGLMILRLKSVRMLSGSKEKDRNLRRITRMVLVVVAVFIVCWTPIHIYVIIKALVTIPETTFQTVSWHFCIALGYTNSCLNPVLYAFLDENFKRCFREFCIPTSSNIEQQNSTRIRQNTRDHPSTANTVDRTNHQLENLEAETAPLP", "format": "functional, cell-based"}, "[10]": {"target": "5-hydroxytryptamine receptor 2A (Mus musculus, UniProt P35363)", "sequence (P35363 whole entry)": "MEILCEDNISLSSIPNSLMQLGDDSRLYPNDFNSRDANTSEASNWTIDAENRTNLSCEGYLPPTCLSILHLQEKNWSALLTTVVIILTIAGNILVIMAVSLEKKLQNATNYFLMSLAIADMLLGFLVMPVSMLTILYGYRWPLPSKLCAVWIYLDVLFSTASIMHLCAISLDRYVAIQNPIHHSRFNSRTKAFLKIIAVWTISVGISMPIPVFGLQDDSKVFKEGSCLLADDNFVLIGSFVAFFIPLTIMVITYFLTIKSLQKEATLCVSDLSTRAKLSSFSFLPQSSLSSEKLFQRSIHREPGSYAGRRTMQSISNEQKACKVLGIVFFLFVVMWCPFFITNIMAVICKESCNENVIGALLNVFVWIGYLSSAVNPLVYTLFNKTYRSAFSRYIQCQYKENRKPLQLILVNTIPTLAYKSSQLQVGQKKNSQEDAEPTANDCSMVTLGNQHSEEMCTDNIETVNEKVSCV", "format": "functional, cell-based"}, "[11]": {"target": "Potassium channel subfamily K member 9 (Homo sapiens, UniProt Q9NPC2)", "sequence (Q9NPC2 whole entry)": "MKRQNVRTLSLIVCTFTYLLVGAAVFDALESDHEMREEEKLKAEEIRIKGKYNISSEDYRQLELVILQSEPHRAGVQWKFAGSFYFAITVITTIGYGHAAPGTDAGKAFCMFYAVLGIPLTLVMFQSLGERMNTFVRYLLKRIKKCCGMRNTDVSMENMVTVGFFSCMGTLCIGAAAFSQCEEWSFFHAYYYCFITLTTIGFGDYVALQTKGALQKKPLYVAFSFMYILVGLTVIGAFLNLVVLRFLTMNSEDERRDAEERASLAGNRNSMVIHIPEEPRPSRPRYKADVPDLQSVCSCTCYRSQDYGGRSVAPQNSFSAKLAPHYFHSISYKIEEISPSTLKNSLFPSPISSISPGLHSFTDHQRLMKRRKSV", "experiment": "KCNK9 flux blockade, concentration-response – cell-based, FluxOR thallium flux, selectivity assay for TASK1 inhibitor project, SAR follow-up (AID 652211);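 also: potency is for inhibitors of the channel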", "format": "functional"}, "[12]": {"target": "T2, Heat shock factor protein 1 (Mus musculus, UniProt P38532)", "T2 sequence (P38532 whole entry)": "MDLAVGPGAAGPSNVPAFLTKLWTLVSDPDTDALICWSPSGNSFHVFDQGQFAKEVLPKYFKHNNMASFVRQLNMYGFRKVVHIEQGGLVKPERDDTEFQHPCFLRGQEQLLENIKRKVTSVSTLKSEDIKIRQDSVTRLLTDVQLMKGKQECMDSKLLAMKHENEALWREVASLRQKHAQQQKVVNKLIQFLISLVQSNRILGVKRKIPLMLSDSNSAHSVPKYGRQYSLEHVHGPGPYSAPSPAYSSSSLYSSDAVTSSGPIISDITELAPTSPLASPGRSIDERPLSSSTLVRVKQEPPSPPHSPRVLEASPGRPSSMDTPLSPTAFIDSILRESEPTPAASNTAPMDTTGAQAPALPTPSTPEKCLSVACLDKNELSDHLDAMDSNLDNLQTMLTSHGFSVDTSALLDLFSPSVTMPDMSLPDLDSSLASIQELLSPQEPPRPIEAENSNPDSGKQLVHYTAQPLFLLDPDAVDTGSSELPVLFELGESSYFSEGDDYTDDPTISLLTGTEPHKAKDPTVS", "experiment": "enhancement of HSF1-driven luciferase signal – cell-based, NIH3T3, luminescence, dose retest, confirmation (AID 435004);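 also: stress induced by proteasome inhibitor MG132 added 30 min after compound; actives raise luminescence as potentiators of the MG132 stress response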", "format": "functional"}, "SN12K1": {"tested_on": "SN12K1", "experiment": "cells", "format": "functional", "conditions": "Homo sapiens"}, "[13]": {"experiment": "off-target signal loss in HeLa-CEM21 co-culture – HeLa F-luc CTL cells, cherry-picked, counter-screen for HIV-1 Env fusion inhibitor project, dose response (AID 652040);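 also: potency for signal decrease marking cytotoxic or nonspecific inhibition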", "format": "functional, cell-based"}, "INS1": {"tested_on": "INS1", "experiment": "INS-1E survival protection against cytokine death – cell-based, luminescence, retest, dose response (AID 449756);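 also: cell death triggered by IL-1 beta plus TNF-alpha plus IFN-gamma mixture; protective hits raise ATP signal compared with cytokine alone wells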", "format": "functional", "conditions": "Rattus norvegicus"}, "[14]": {"experiment": "viability loss in CEM21 cells – cell-based, CellTiter-Glo luminescence, cherry-picked, cytotoxicity control for viral fusion inhibitor project, dose response (AID 652042);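 also: potency for signal decrease meaning cytotoxicity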", "format": "functional"}, "cells [15]": {"experiment": "cells", "format": "functional, cell-based", "remark": "listed apart in the source"}, "BJ": {"tested_on": "BJ", "experiment": "growth inhibition of engineered Ras-driven BJ cells – cell-based, alamar blue fluorescence, cherrypicked samples, dose response (AID 2631);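 also: confirmatory dose-response assay in RAS-dependent BJ fibroblasts engineered with TERT, LT and ST, with cytotoxicity read by fluorescence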", "format": "functional", "conditions": "Homo sapiens"}, "Paired box protein Pax-8": {"target": "Paired box protein Pax-8 (Homo sapiens, UniProt Q06710)", "sequence (Q06710 whole entry)": "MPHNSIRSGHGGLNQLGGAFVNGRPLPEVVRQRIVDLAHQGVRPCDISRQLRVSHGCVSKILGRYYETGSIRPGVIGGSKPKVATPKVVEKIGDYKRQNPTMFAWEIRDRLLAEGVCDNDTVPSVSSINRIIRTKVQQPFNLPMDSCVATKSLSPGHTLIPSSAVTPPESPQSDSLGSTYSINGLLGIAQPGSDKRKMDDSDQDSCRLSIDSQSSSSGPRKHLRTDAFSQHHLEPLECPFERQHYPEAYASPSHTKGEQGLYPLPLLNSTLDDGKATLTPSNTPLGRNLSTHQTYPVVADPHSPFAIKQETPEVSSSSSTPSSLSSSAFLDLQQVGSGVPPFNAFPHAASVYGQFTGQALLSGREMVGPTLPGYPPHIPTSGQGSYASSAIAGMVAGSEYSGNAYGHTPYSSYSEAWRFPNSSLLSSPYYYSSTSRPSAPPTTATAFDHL", "experiment": "PAX8 transcriptional activity inhibition in RMG-I – RMG-I cells, luciferase, cherry-pick, dose response (AID 687027);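 also: luciferase reporter driven by Pax8 target thyroperoxidase promoter measured by SteadyGlo luminescence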", "format": "functional, cell-based"}, "[16]": {"experiment": "HEK-293T viability loss after treatment – luminescence, T-cell screen hits, cytotoxicity control for TCR NF-kB inhibitor project, dose response (AID 489026);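 also: cells exposed to compound about 14 hours before the viability readout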", "format": "functional, cell-based"}, "P388": {"tested_on": "P388", "experiment": "cells", "format": "functional", "conditions": "Mus musculus"}, "[17]": {"experiment": "HIV-1 AD8 envelope cell-cell fusion blockers – cherry-pick, dose response (AID 652062);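 also: potency is for inhibitors of fusion seen as a drop in luminescence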", "format": "functional, cell-based"}, "[18]": {"experiment": "blockers of HIV-1 envelope-mediated cell-cell fusion – cherry-pick, dose response (AID 652057)", "format": "functional, cell-based"}, "cells [19]": {"experiment": "cells", "format": "functional, cell-based", "remark": "listed apart in the source"}, "P388/ADR": {"tested_on": "P388/ADR", "experiment": "cells", "format": "functional", "conditions": "Mus musculus"}, "[20]": {"experiment": "blockers of HIV-1 ZM109 envelope-driven cell-cell fusion – HeLa effector, CEM target cells, luciferase, cherry-pick, dose response (AID 652058)", "format": "functional, cell-based"}},
  "note": "Activity calls are given as the source filed them.",
  "data": [
    {"smiles": "Cc1nn(Cc2c(F)c(F)c(F)c(F)c2F)c(C)c1NC(=O)c1ccc(COc2ccccc2Cl)cc1", "values": [
      {"measurement": "EC50", "setting": "[1]", "value": "> 29.9 µM (inactive)"},
      {"measurement": "IC50", "setting": "[2]", "value": "> 29.9 µM (inactive)"}
    ]},
    {"smiles": "Cc1cc2cc(C#N)c(SCC(=O)Nc3nonc3C)nc2cc1C", "values": [
      {"measurement": "AC50", "setting": "[3]", "value": "34.9 µM (active)"}
    ]},
    {"smiles": "O=C(COc1ccccc1)Nc1ccc(N2CCN(C(=O)c3cccs3)CC2)cc1", "values": [
      {"measurement": "AC50", "setting": "Vero", "value": "35.4 µM (active)"}
    ]},
    {"smiles": "O=C(c1ccco1)c1cn(Cc2ccccc2Cl)c2ccccc12", "values": [
      {"measurement": "AC50", "setting": "[4]", "value": "9.08 µM (active)"}
    ]},
    {"smiles": "Cc1ccnc(NC(=O)Cc2ccc(-c3ccccc3)cc2)c1", "values": [
      {"measurement": "EC50", "setting": "cells [5]", "value": "> 67.5 µM (inactive)"},
      {"measurement": "EC50", "setting": "[6]", "value": "> 67.5 µM (inactive)"},
      {"measurement": "IC50", "setting": "[7]", "value": "0.741 µM (active)"},
      {"measurement": "IC50", "setting": "[8]", "value": "> 67.5 µM (inactive)"},
      {"measurement": "IC50", "setting": "cells [9]", "value": "> 67.5 µM (inactive)"}
    ]},
    {"smiles": "COCCN1C(=S)N[C@@H](c2ccccc2)C(C(=O)OC)=C1C", "values": [
      {"measurement": "AC50", "setting": "Cryptococcus neoformans", "value": "> 84 µM (inactive)"}
    ]},
    {"smiles": "CN1C[C@H](CO)C[C@@H]2c3cccc4[nH]cc(c34)C[C@H]21", "values": [
      {"measurement": "EC50", "setting": "Mu-type opioid receptor", "value": "92.5 µM (inactive)"},
      {"measurement": "EC50", "setting": "[10]", "value": "0.0819 µM (active)"}
    ]},
    {"smiles": "CCOc1ccccc1C(=O)Nc1cccc(NC(=O)c2ccccc2OC)c1", "values": [
      {"measurement": "IC50", "setting": "[11]", "value": "1.98 µM (active)"}
    ]},
    {"smiles": "CC[C@@]1(O)C(=O)OCc2c1cc1n(c2=O)Cc2cc3c(N)cccc3nc2-1", "note": "[9-AMINOCAMPTOTHECIN]", "values": [
      {"measurement": "EC50", "setting": "[12]", "value": "> 260 µM (inconclusive)"},
      {"measurement": "GI50", "setting": "SN12K1", "value": "< 0.0227 µM (active)"},
      {"measurement": "AC50", "setting": "[13]", "value": "< 0.26 µM (active)"},
      {"measurement": "AC50", "setting": "INS1", "value": "2.13 µM (active)"},
      {"measurement": "AC50", "setting": "[14]", "value": "2.47 µM (active)"},
      {"measurement": "IC50", "setting": "[7]", "value": "0.896 µM (active)"},
      {"measurement": "EC50", "setting": "cells [15]", "value": "> 350 µM (not active)"},
      {"measurement": "EC50", "setting": "BJ", "value": "0.00718 µM (active)"},
      {"measurement": "AC50", "setting": "Paired box protein Pax-8", "value": "< 0.26 µM (active)"},
      {"measurement": "IC50", "setting": "[16]", "value": "> 80 µM (inactive)"},
      {"measurement": "GI50", "setting": "P388", "value": "< 0.0119 µM (active)"},
      {"measurement": "AC50", "setting": "[17]", "value": "0.348 µM (active)"},
      {"measurement": "AC50", "setting": "[18]", "value": "< 0.26 µM (active)"},
      {"measurement": "EC50", "setting": "cells [19]", "value": "> 350 µM (not active)"},
      {"measurement": "GI50", "setting": "P388/ADR", "value": "< 0.0174 µM (active)"},
      {"measurement": "AC50", "setting": "[20]", "value": "0.463 µM (active)"}
    ]}
  ]
}
